Experimental findings from patent US20130280235A1, “METHODS OF DIAGNOSIS AND TREATMENT FOR METABOLIC DISORDERS” (DiaMedica Inc., priority 2006, published 2013) are described below.

Assay [1] has as its system Wistar rats. The assay can be described thus: Oral glucose challenge (2 g/kg) in fasted rats, serum glucose by enzymatic method (Mutaratase-GOD). In kind it is in vivo, rat. The note with it: male Wistar rats; for Blood Glucose at T0: fasted, agent given one hour before, sample immediately prior to oral glucose loading; for Blood Glucose at T90: 90 minutes post oral glucose challenge 2 g/kg; for Change in Blood Glucose: T0 to T90 after oral glucose 2 g/kg. How it is done: Groups of 5 male Wistar rats weighing 200+/−10 g were employed. Fasted animals were injected with agent or placebo (GLP-1, 1 nmole/kg, iv) and/or gavaged with agent or placebo (tissue kallikrein (SIGMA), 200 U) one hour prior to glucose challenge. A blood sample was taken immediately prior oral glucose loading (2 g/kg). At 90 minutes post glucose challenge a second blood sample was taken. The serum glucose samples were assessed by enzymatic method (Mutaratase-GOD) for the time points.

The test system of assay [2] is Sprague-Dawley rats. The assay can be described thus: Euglycemic hyperinsulinemic clamp in rats made insulin resistant by a high-sucrose diet. In kind it is in vivo, rat. The conditions noted are these: up to one unit by bolus IV injection, last hour of 2 h clamp, versus saline controls. On the procedure:
A litter of 14 Sprague-Dawley rats, (from Charles River, St-Constant, Canada), obtained at 5 weeks old are accommodated individually in cages. The animals are acclimatized to a temperature of 22° C.+/−1° C. and constant humidity and airflow conditions. The animals are fed a high sucrose diet. During the 2 weeks prior to experimentation, the animals have free access to tap water, are provided their controlled diet and their body weight and food intake are recorded every other day. The high-sucrose diet consists of 62.5% (wt/wt) sucrose, 6.5% corn oil, 20% protein (casein, purified high nitrogen), 0.3% dl-methionine, 1% vitamin mix, 4.7% mineral mix and 5% cellulose. The energy density of the high-sucrose diet is 16.81 kJ/g. This high-sucrose diet induces insulin resistance. […]
Analytical Methods—The rats are anesthetized and venous blood samples are taken for plasma glucose and insulin assessment and rapidly centrifuged. […] Resting heart rate, blood pressure and regional blood flows are recorded over 30 minutes in quiet, unrestrained and unsedated rats.
Euglycemic Clamp Methodology—All rats receive an infusion of regular porcine insulin at a rate of 16 mU·kg^−1·min^−1 for 2 hours. […] The Euglycemic hyperinsulinemic clamp is performed over 2 hours, while blood pressure, heart rate, and regional blood flow is measured continuously with blood samples. […]

In the case of glucagon like peptide 1 [GLP-1], in assay [1], the “Blood Glucose at T0” value was 110 mg/dL, the “Blood Glucose at T90” value is 216 mg/dL and the “Change in Blood Glucose” value came to 116.1 ± 18.1 mg/dL.

Take kallikrein: in assay [2], the “Area under the curve of glucose required to maintain euglycemia (index of insulin sensitivity)” value is given as “greater area under the curve”.

Regarding tissue kallikrein [tissue kallkrein], in assay [1], the “Blood Glucose at T0” value is recorded as 109 mg/dL, the “Blood Glucose at T90” value is 229 mg/dL and the “Change in Blood Glucose” value was found to be 120.2 ± 20.7 mg/dL.
